Source: patent US12551438B2, “Nanobowl-supported drug-loaded liposome, preparation method therefor and application thereof” (priority 2020, dated 2026)
Where a name gives a salt, the structure may show the parent alone.

Tests used:
[1] = test system: important organs of tumor-bearing mice; settings: mouse, in vivo
Source text: (§1) [formula] • 2) after the tumor volume grew to 80 mm^3, it was evenly divided into the following 5 experimental groups according to the size of tumor volume: • (1) Saline group (Saline) • (2) Blank nanobowls@liposomes group (NB@LP) • (3) Doxorubicin hydrochloride group (Dox) • (4) Common Dox-liposome group (DLP) • (5) Nanobowls@Dox-liposome group (NB@DLP) • 3) On the 8th, 11th and 14th day after inoculation, the corresponding drugs were intravenously injected into the tail vein of each experimental group, and the corresponding drugs were administered to each group at a dose of 4 mg/kg of doxorubicin. 3. Monitoring of Mouse Body Weight and Tumor Volume • 1) determining body weight and tumor length and diameter every 2 days after the first dose of group, calculating tumor volume, and recording and summarizing all results; • 2) using GraphPad Prism 7.0 medical mapping software for data induction, statistical analysis, and making charts. 4. Immunohistochemical Staining of Tissue Sections • 1) after the last intravenous administration, selecting several mice in each experimental group, after sacrifice, dissecting and removing tumor tissues and important organs of mice, and fully immersing in 4% paraformaldehyde solution for fixation; • 2) during fixation, replacing fresh 4% paraformaldehyde solution several times to wash out residual blood. […]

4T1 tumor tissue = test: TUNEL and PCNA immunohistochemical staining of tumor tissue of 4T1 tumor-bearing mice; format: in vivo, mouse; settings: tumor tissue after treatment
Source text: as §1

4T1 breast cancer cells = test: Cell viability by CCK-8 method; format: cell-based, mouse; settings: 4T1 cells, doxorubicin 0.01-10.00 μg/mL, 48 h
Experimental: [formula] • 5) collecting the nanobowls@Dox-liposomes at each time point by centrifugation (24000 g, 15 min) and determining the particle size and potential by DLS after redispersion. 1.2. […] Incubating the culture plate in a 37° C., 5% CO2 constant temperature cell incubator for 12 h; 2) preparing different nanoparticle structures in a serum-free culture medium with a drug concentration gradient to prepare a culture medium containing different concentrations of liquid medicine, sucking out the old culture medium in the culture plate, and then adding 200 μL of a new culture medium containing the liquid medicine to each well; • 3) placing the 96-well plate containing cells in a 37° C., 5% CO2 constant temperature cell incubator for culture for appropriate time; • 4) diluting CCK-8 liquid with serum-free culture medium by a factor of 10 according to 1:10, sucking out the old culture medium in the culture plate, and adding 100 μL culture medium containing CCK-8 into each well; • 5) incubating the culture plate in a 37° C., 5% CO2 constant temperature cell incubator for 0.5-1 h; • 6) determining the absorbance of each well with a microplate reader at a wavelength of 450 nm. […]

4T1 breast cancer = test system: 4T1 breast cancer
Experimental: • 1) 4T1 cell culture solution: DMEM basal medium, 1 penicillin streptomycin double antibody, 10% fetal bovine serum; • 2) 4% paraformaldehyde solution: with PBS (0.01 M) of pH 7.4 as the solvent, weighing 40 g of paraformaldehyde and placing into 800 mL of PBS solution, shaking and dissolving in a constant temperature shaker at 60° C. overnight; after the solid of paraformaldehyde is completely dissolved, stopping heating, balancing to room temperature, and adding PBS again to dilute the volume to 1 L; • 3) 1% sodium pentobarbital anesthetic: weighing 100 mg pentobarbital sodium, adding into 10 mL ultrapure water, and vortexing until it is fully dissolved. II. Experimental Method 1. Establishment of Orthotopic Inoculation Model for 4T1 Breast Cancer 1.1 Preparation of 4T1 Cell Suspension • 1) Taking a T-75 culture flask containing 4T1 cells, using a pipette to suck out the cell culture solution in the culture flask, and adding 5 mL of DPBS to rinse for 1-2 times to remove the residual culture solution; • 2) adding 2 mL of 0.25% trypsin, shaking the culture flask back and forth, so that the trypsin uniformly covers the bottom surface of the culture flask, and incubating in a constant temperature incubator containing 5% CO2 at 37° C. for 3 min; • 3) adding 10 mL serum-free cell culture medium, diluting trypsin and stop digestion; • 4) using a pipette to blow and beat the cell suspension to evenly disperse it to obtain a single cell suspension, taking 5 μL of cell suspension and adding placental blue dye solution with the same volume, and using an Invitrogen life countess cell counter to count the cells of cell suspension; • 5) centrifuging at 4° C. and 800 g for 5 min, discarding the supernatant, adding an appropriate amount of serum-free cell culture medium according to the intracellular concentration calculated previously, gently blowing and beating the cell block with a pipette to fully disperse it to prepare a single cell suspension, and the final concentration of cell suspension is: 1.6×10^7/mL; • 6) dispensing the 4T1 cell suspension into sterile 2 mL centrifuge tubes and storing at 4° C. until use. 1.2 BALB/c Female Mice Inoculated Orthotopically with 4T1 Cells • 1) On the day before inoculation, removing the hair on the right side of the abdomen of the mice to prepare the skin for the next day surgery; • 2) the next day, injecting the skin-prepared mice intraperitoneally with 1% pentobarbital anesthetic 100 μL; • 3)after complete anesthesia, fixing the limbs, wetting the right side of the abdomen with normal saline, and then using a scalpel to make a light incision on the abdomen; • 4) using tweezers to clamp out the 4th mammary fat pad located at the root of right thigh, and injecting 50 μL of 4T1 single cell suspension prepared above; • 5) loosening the tweezers, positioning the fat pad, and then suturing the abdominal wound; • 6) at the end of inoculation, returning the mice to their cages and the front leg of each mouse was taped with a label tape. 2. Animal Grouping and Dosing Regimen • 1) four days after inoculation, tumor volume was determined using vernier calipers: the longest and shortest diameters (L, W) of the tumor were measured every other day, and the tumor volume was calculated according to the following formula:
[formula] • 2) after the tumor volume grew to 80 mm^3, it was evenly divided into the following 5 experimental groups according to the size of tumor volume: • (1) Saline group (Saline) • (2) Blank nanobowls@liposomes group (NB@LP) • (3) Doxorubicin hydrochloride group (Dox) • (4) Common Dox-liposome group (DLP) • (5) Nanobowls@Dox-liposome group (NB@DLP) • 3) On the 8th, 11th and 14th day after inoculation, the corresponding drugs were intravenously injected into the tail vein of each experimental group, and the corresponding drugs were administered to each group at a dose of 4 mg/kg of doxorubicin. 3.

COc1cccc2c1C(=O)c1c(O)c3c(c(O)c1C2=O)C[C@@](O)(C(=O)CO)C[C@@H]3O[C@H]1C[C@H](N)[C@H](O)[C@H](C)O1 [Dox, doxorubicin hydrochloride]
toxicity to the heart (pathological sections) [1]: more toxic to the heart, leading to the lysis and rupture of cardiomyocytes | effect of promoting tumor cell apoptosis (TUNEL) and inhibiting proliferation (PCNA) (4T1 tumor tissue): worst effect | effect on cell viability (4T1 breast cancer cells): significantly stronger than that of common Dox-liposomes and nanobowls@Dox-liposomes | tumor volume growth (4T1 breast cancer; 4 mg/kg doxorubicin i.v. tail vein, days 0, 3 and 6): could not achieve the expected treatment of tumor | median survival time (4T1 breast cancer; 4T1 breast cancer mice): 27 days | Median survival (4T1 breast cancer; 4T1 breast cancer mice, 4 mg/kg doxorubicin i.v. x3): 27 days | Prolong duration (4T1 breast cancer; median survival versus saline): 3 days | Prolonged rate (%) (4T1 breast cancer; median survival versus saline control): 12.50% | body weight of mice during administration (4T1 breast cancer; mouse, in vivo): significant decrease | prolongation of median survival time compared with the control group (4T1 breast cancer; versus saline control): 3 days
